# Experimental data reported in patent publication US9078868B2, “Therapeutic agent for accelerating recovery of animal under medical treatment” (UNIVERSITY OF MIYAZAKI, priority 2010, dated 2015).
# No end group written: not given here. *: point of attachment. Octanoyl = CCCCCCCC(=O)*
# Assays:
# [1] = system: animals with poor physical conditions, surgery or no surgery; test: Example 3-2: improvement after ghrelin in animals which had or had not undergone a surgery; format: in vivo, canines and felines; details: dash = no significant difference
# Method: A canine-derived ghrelin was repeatedly administered intravenously or subcutaneously to each of the animals with poor physical conditions. The dose of intravenous administration was approximately 5 μg/kg or 10 μg/kg, and the dose of subcutaneous administration was approximately 100 μg/kg. The mean number of doses in repeated administration was approximately four times, and the maximum number of doses was 11 times. The administration period was one to six days.
# Evaluation parameters evaluated before and after administration of ghrelin were appetite, quantity of meal, biochemical test values (GOT, GPT, BUN, CRE, CPK, CRP), blood cell test values (white blood cell [WBC], platelet [PLT]), body temperature, activity (vigor), skin, coat, wellness, the degree of anger or anxiety, respiratory rate, and others. These parameters were analyzed together with the results of the animals receiving a single dose (Examples 1 and 2). The analysis results were compiled by disease, such as renal dysfunction, tumor, fracture, and accident (see Table 3-1). Statistical analysis of values before and after administration was performed using a paired t-test.
# Ghrelin was administered to animals with poor physical conditions after surgery for the treatment of various pathological conditions, and various parameters indicating physical conditions before and after administration of ghrelin were analyzed. The surgery included urethroplasty, surgery for a fracture, luxation, disc hernia, or diaphragmatic hernia, surgical removal of a tumor, and surgical removal of a reproductive organ due to pyometra.
# Meanwhile, ghrelin was administered to animals with poor physical conditions due to various pathological conditions which had not undergone a surgery, and various parameters indicating physical conditions before and after administration of ghrelin were analyzed. The pathological conditions included filariasis, mite infestation, babesiosis, hemobartonellosis, bite, and dermatitis.
# [2] = system: animals under medical treatment with physical conditions worsened by various diseases; test: Example 2: single dose of ghrelin in animals under medical treatment for pathological conditions other than a surgery; format: in vivo, canines and felines; details: for Activity (vigor): animals improved/animals evaluated / Activity (vigor): response rate / Biochemical tests: animals improved/animals evaluated / Biochemical tests: response rate / Hematology tests: animals improved/animals evaluated / Hematology tests: response rate / Body temperature: animals improved/animals evaluated / Body temperature: response rate: single dose
# Method: In these Examples, a canine-derived ghrelin (a peptide compound in which a side chain hydroxyl group of the serine residue at the 3rd position from the amino terminus is acylated with an n-octanoyl group in SEQ ID NO: 1) was used as ghrelin. The canine-derived ghrelin was chemically synthesized and then lyophilized, and a canine-derived ghrelin for administration containing 0.1, 0.3, 0.5, or 1 mg per vial of a canine-derived ghrelin was prepared.
# To administer ghrelin to animals, the canine-derived ghrelin was dissolved to a concentration of 1 mg/2 mL in physiological saline and intravenously, subcutaneously, or intramuscularly injected after the dose was adjusted depending on the body weight.
# Animals hospitalized in veterinary hospitals, particularly canines and felines, were used for treatment. These animals may or may not have undergone a surgery for treatment. The surgeries performed on the animals were pyometra surgery, surgical removal of a reproductive organ, surgical removal of mammary gland tumor, ovary cyst surgery, liver cell tumor surgery, disc hernia surgery, diaphragmatic hernia surgery, fracture surgery, gastrointestinal tract surgery, and urethroplasty.
# Physical conditions in animals with various pathological conditions were examined by measuring parameters including activity (vigor), blood cell test values, biochemical test values, urinalysis, electrolyte tests, body weight, body temperature, the degree of anger or anxiety, respiratory rate, and the like to evaluate the effect of improving physical conditions in the animals. The effect was evaluated by comparing various evaluation parameters before and after administration.
# The evaluation parameters used were activity (vigor), body temperature, hematology parameters (blood cell test values), serum biochemistry parameters (biochemical test values), the degree of anger or anxiety, and respiratory rate. […] The degree of anger or anxiety of an animal observed visually by an observer were also evaluated using the following criteria: 1. calm and accustomed to a health care professional, 2. able to be touched by but unaccustomed to a health care professional and restless, 3. wandering around or hiding in the kennel with anxiety, 4. able to be barely touched, and 5. too violent to be touched by a health care professional and tends to bite.
# Ten animals had two or more diseases concurrently. The diseases including concurrent diseases were as follows: lower urological syndrome, urinary retention, infectious respiratory syndrome, chronic renal failure, osteoarthritis, chronic hepatitis, cystolithiasis, malnutrition, debility, jaundice, circulatory insufficiency, multiple organ failure, pulmonary edema, anemia, tabefaction, diarrhea, vomiting, wheezing, pyrexia, FIV, FELV infection, CPV infection, FVR, a liver disease, filariasis, hemobartonellosis, babesiosis, habu bite, anaphylaxis, a falling accident, rib fracture, and burn.
# Of the animals with these diseases, the evaluation parameters recorded in medical records were as follows: activity (vigor) in 16 animals, biochemistry parameters (biochemical test values) in 11 animals, hematology parameters (blood cell test values) in three animals, and body temperature in one animal.
# [3] = multiple organ failure, 1 animal
# [4] = total, 18 animals with various diseases
substance,measurement,setting,value
"GSS (n-octanoyl) FLSPEHQKLQQRKESKKPPAKLQPR (GSS(Octanoyl)FLSPEHQKLQQRKESKKPPAKLQPR; listed as Canis familiaris) [ghrelin, chemically synthesized, lyophilized]",BUN: significance (p) of improvement after vs before administration,"[1]; no surgery, 24 animals",p < 0.05
same,GPT: significance (p) of improvement after vs before administration,"[1]; no surgery, 24 animals",p < 0.05
same,Vigor: significance (p) of improvement after vs before administration,"[1]; no surgery, 24 animals",p < 0.01
same,WBC: significance (p) of improvement after vs before administration,"[1]; no surgery, 24 animals",p < 0.05
same,BUN: significance (p) of improvement after vs before administration,"[1]; surgery, 70 animals",p < 0.05
same,Body temperature: significance (p) of improvement after vs before administration,"[1]; surgery, 70 animals",p < 0.01
same,CRE: significance (p) of improvement after vs before administration,"[1]; surgery, 70 animals",p < 0.05
same,Degree of anger: significance (p) of improvement after vs before administration,"[1]; surgery, 70 animals",p < 0.01
same,GOT: significance (p) of improvement after vs before administration,"[1]; surgery, 70 animals",p < 0.01
same,GPT: significance (p) of improvement after vs before administration,"[1]; surgery, 70 animals",p < 0.01
same,PLT: significance (p) of improvement after vs before administration,"[1]; surgery, 70 animals",p < 0.05
same,Respiratory rate: significance (p) of improvement after vs before administration,"[1]; surgery, 70 animals",p < 0.05
same,Vigor: significance (p) of improvement after vs before administration,"[1]; surgery, 70 animals",p < 0.01
same,Activity (vigor): animals improved/animals evaluated,"[2]; accident etc., 3 animals",3/3
same,Activity (vigor): response rate,"[2]; accident etc., 3 animals",100%
same,Biochemical tests: animals improved/animals evaluated,"[2]; accident etc., 3 animals",1/1
same,Biochemical tests: response rate,"[2]; accident etc., 3 animals",100%
same,Activity (vigor): animals improved/animals evaluated,"[2]; anaphylaxis, 1 animal",1/1
same,Activity (vigor): response rate,"[2]; anaphylaxis, 1 animal",100%
same,Biochemical tests: animals improved/animals evaluated,"[2]; anaphylaxis, 1 animal",1/1
same,Biochemical tests: response rate,"[2]; anaphylaxis, 1 animal",100%
same,Serum potassium (K) value after administration,[2]; animals in the Examples with decreased serum potassium after persistent poor physical conditions,improved
same,T-bil after administration,[2]; before administration 18.8 mg/dL,4.9 mg/dL
same,Activity (vigor): animals improved/animals evaluated,"[2]; debility, 1 animal",1/1
same,Activity (vigor): response rate,"[2]; debility, 1 animal",100%
same,Biochemical tests: animals improved/animals evaluated,"[2]; debility, 1 animal",1/1
same,Biochemical tests: response rate,"[2]; debility, 1 animal",100%
same,NH3 after administration,"[2]; example, before administration 207 μg/dL",302 µg/dL
same,Cre after administration,"[2]; example, before administration 3.2 mg/dL",1.3 mg/dL
same,BUN after administration,"[2]; example, before administration 72.5 mg/dL",15.4 mg/dL
same,Body temperature after administration,"[2]; example, before administration 40.2° C.",37.8 °C
same,White blood cell count after administration,"[2]; example, before administration 278×10^2/μL",16700 µL⁻¹
same,ALP after administration,"[2]; example, before administration 643 IU/L",291 IU/L
same,GPT after administration,"[2]; example, before administration 670 IU/L",260 IU/L
same,CPK after administration,"[2]; example, before administration 1166 IU/L",64 IU/L
same,GOT after administration,"[2]; example, before administration >1000 IU/L",187 IU/L
same,Activity (vigor) score after administration,"[2]; example, before administration a score of 1 (unable to move), scale 1-7",3
same,Activity (vigor): animals improved/animals evaluated,"[2]; infection, 8 animals",6/6
same,Activity (vigor): response rate,"[2]; infection, 8 animals",100%
same,Biochemical tests: animals improved/animals evaluated,"[2]; infection, 8 animals",6/6
same,Biochemical tests: response rate,"[2]; infection, 8 animals",100%
same,Hematology tests: animals improved/animals evaluated,"[2]; infection, 8 animals",1/1
same,Hematology tests: response rate,"[2]; infection, 8 animals",100%
same,Activity (vigor): animals improved/animals evaluated,"[2]; liver disease, 1 animal",1/1
same,Activity (vigor): response rate,"[2]; liver disease, 1 animal",100%
same,Body temperature: animals improved/animals evaluated,"[2]; liver disease, 1 animal",1/1
same,Body temperature: response rate,"[2]; liver disease, 1 animal",100%
same,Activity (vigor): animals improved/animals evaluated,[2]; [3],1/1
same,Activity (vigor): response rate,[2]; [3],100%
same,Activity (vigor): animals improved/animals evaluated,"[2]; renal dysfunction, 3 animals",3/3
same,Activity (vigor): response rate,"[2]; renal dysfunction, 3 animals",100%
same,Biochemical tests: animals improved/animals evaluated,"[2]; renal dysfunction, 3 animals",1/1
same,Biochemical tests: response rate,"[2]; renal dysfunction, 3 animals",100%
same,Hematology tests: animals improved/animals evaluated,"[2]; renal dysfunction, 3 animals",2/2
same,Hematology tests: response rate,"[2]; renal dysfunction, 3 animals",100%
same,Activity (vigor): animals improved/animals evaluated,[2]; [4],16/16
same,Activity (vigor): response rate,[2]; [4],100%
same,Biochemical tests: animals improved/animals evaluated,[2]; [4],11/11
same,Biochemical tests: response rate,[2]; [4],100%
same,Body temperature: animals improved/animals evaluated,[2]; [4],1/1
same,Body temperature: response rate,[2]; [4],100%
same,Hematology tests: animals improved/animals evaluated,[2]; [4],3/3
same,Hematology tests: response rate,[2]; [4],100%
